Measurements: patent US6344217B1, “Putamen OVI” (priority 1994, dated 2002)
Several values for one entry are separate records, joined by “and”; a condition that tells them apart may be missing. Equal values may be shown once. Entries after “also recorded” stand apart in the source; their conditions may differ.

Columns and labels:
[1] = system: Male Wistar rats; assay: Clinical-chemical serum parameters after 7-day treatment of rats; assay type: in vivo, rat
Experimental: (§1) Male Wistar rats having an average body weight of 322.5 g were kept under conventional conditions at a room temperature of 21±1° C., a relative atmospheric humidity of about 60% and a 12 hour day/night cycle. Prior to the start of the experiment, they where subjected to an acclimatization to those keeping conditions for 12 days.
(§2) Feeding was performed with the pelletized standard diet Altromin C 1000, Misch. Nr. 100 (Altrogge). The animals were given tap water ad libidum as drinking water.
(§3) 1. Coated tablet core granules, micronized with putamen ovi; 1 coated tablet core aar® os with 640 mg contains 440 mg of putamen ovi, micronized, corresponding to 160 mg of calcium; Dosage form: Putamen ovi, coated tablet core granules, 146 mg (≡100 mg of putamen ovi, micronized≈36.5 mg of Ca) is suspended in 2 ml of dist. water (POS), 0.5 ml (POS)≡9.125 mg of Ca (PO)/[…]
(§4) The suspension were freshly prepared immediately before the administration and homogeneously administered. The control animals were given physiological saline in an equivalent volume.
Parameters such as enzymes, glucose, lipids, electrolytes, creatinin, urea and protein are detected selectively, method-oriented, photometrically or ion-selectively using the analyzer Cobas Mira. The supplemental report furnishes analysis-specific data of quality control and statistics.
The following clinical-chemical metabolic measurement values were analyzed in a combined method-specific manner: Bilirubin, creatinin, urea, glutamate oxalacetate transaminase (GOT), glutamate pyruvate transaminase (GPT), gamma-glutamyl transferase (GGT), glucose, cholesterol, triglycerides, calcium, sodium, potassium, chloride and total protein.
(§5) Measurements were performed with the following test substances (corresponding values for the control=100%): […]

[2] = system: Male Wistar rats; assay: Leucocyte/lymphocyte differentiation by flow cytometry after 7-day treatment of rats; assay type: in vivo, rat
Experimental: as §1, §2, §3, §4
The leucocyte differentiation was performed using the flow cytometer FACScan following appropriate lysing of the whole blood sample (scattered light measurement).
The lymphocyte differentiation was performed after specific monoclonal incubation by means of fluorescence-activated cell sorting (fluorescence measurement).
On the 7th day of treatment, there were analyzed quantitatively:
For determining the phenotypes of the lymphocytes, they were incubated with the following antibodies of Pharmingen, San Diego (USA), to which a fluorochrome was coupled:
5 μl each of the antibodies is incubated with 50 μl of Na-EDTA-blood at room temperature in the dark for 20 min. The suspension is agitated with 2 ml of Lyses Reagenz of Becton-Dickinson and incubated for 10 min as described. This followed by centrifuging at 400×g for 6 min, and the supernatant is poured off. The pellet is washed with 3 ml of Cell Wash and centrifuged at 400×g for 6 min. The pellet is taken up in 100 μl of Cell Wash. The suspension is analyzed by means of the flow cytometer.
as §5

[3] = system: Male Wistar rats; assay: Haematology (WBC, RBC) after 7-day intragastral treatment of rats; assay type: in vivo, rat
Experimental: as §1, §2, §3, §4
erythrocytes (RBC), leucocytes (WBC), platelets (PLT), hemoglobin (HGB), hematocrit (HCT)
By means of the fully automated hematology analyzer Sysmex K-1000, the following were determined: WBC, RBC, PLT as well as HGB and HCT, further MCV, MCH and MCHC. The main unit of this device essentially consists of a hydraulic (HS) and an electronic (ES) system. The HS is used for sucking, pipetting, diluting, mixing and lysing. The ES analyzes and converts the signals from the HS and submits the results to the printer. With the aid of microprocessors, the ES also monitors the test runs, the testing station, and performs a quality control.
The hematocrit value corresponds to the percent volume fraction of erythrocytes in blood. In addition to the number of erythrocytes and the hematocrit value, the level of hemoglobin, the chromoprotein contained in the erythrocytes, is an important criterion for the diagnostics of anemias. Classification is performed by the erythrocyte indices. Erythrocyte size and hemoglobin content are characterized by the erythrocyte volume (MCV=mean corpuscular volume), the hemoglobin content of the erythrocytes (MCH=mean corpuscular hemoglobin), and the mean corpuscular hemoglobin concentration (MCHC). The erythrocyte distribution width (RDW=red cell distribution width) is a measure of anisocytosis.
as §5

[4] = system: healthy females in post-menopause; conditions: two-year study, 361 healthy females in post-menopause; cited from earlier work
[5] = system: Male Wistar rats; assay: Histological examination of organs after 7-day treatment of rats; conditions: 7 days
Experimental: as §1, §2, §3, §4

[6] = change vs control (=100%), rats, 7 days intragastral, serum
[7] = change vs control (=100%), rats, 7th day of treatment, peripheral blood
[8] = change vs control (=100%), rats, intragastral once daily for 7 days, peripheral blood

| SMILES | AP (alkaline phosphatase) [1, 6] | Ca [1, 6] | GLDH [1, 6] [%] | GOT [1, 6] | GPT [1, 6] [%] | SP (acid phosphatase) [1, 6] [%] | bilirubin [1, 6] | cholesterol [1, 6] [%] | creatinin [1, 6] [%] | glucose [1, 6] | triglycerides [1, 6] | urea [1, 6] | T lymphocytes [2, 7] | helper lymphocytes [2, 7] | lymphocytes [2, 7] | supp. lymphocytes [2, 7] | WBC (number of leucocytes) [3, 8] | further results |
| --- | --- | --- | --- | --- | --- | --- | --- | --- | --- | --- | --- | --- | --- | --- | --- | --- | --- | --- |
| [F-].[Na+] [NF, Sodium fluoride] | unch. | unch. | −17.3 | −9.8% | −9.7 | −7.5 | +13.8% | −8.7 | −20.7 | +15.7% | −4.2% | −13.2% | did not induce an effect; also recorded: unch | did not induce an effect; also recorded: unch | unch. | did not induce an effect; also recorded: unch | +13.8% | – |
| O=C([O-])[O-].[Ca+2] [CC, Calcium carbonate] | – | unch. | – | – | – | – | – | – | – | – | – | – | – | – | – | – | – | inhibitory influence on bone mass losses [4]: only a slightly pronounced inhibitory influence; AP (alkaline phosphatase) ([1]; rat, in vivo): +5.5%; GLDH ([1]; rat, in vivo): +6.7%; GOT ([1]; rat, in vivo): −7.1%; GPT ([1]; rat, in vivo): unch.; SP (acid phosphatase) ([1]; rat, in vivo): unch.; bilirubin ([1]; rat, in vivo): −17.3%; cholesterol ([1]; rat, in vivo): unch.; creatinin ([1]; rat, in vivo): −19.7%; glucose ([1]; rat, in vivo): +6.7%; triglycerides ([1]; rat, in vivo): −7.8%; urea ([1]; rat, in vivo): −13.9%; B lymphocytes ([2]; rat, in vivo): +7.6%; T lymphocytes ([2]; rat, in vivo): unch.; chemoprotective effect ([2]; rat, in vivo): neither showed positive effects in clinically healthy rats nor chemoprotective effects; helper lymphocytes ([2]; rat, in vivo): −4.3%; lymphocytes ([2]; rat, in vivo): unch.; polymorphs (polymorphonuclear granulocytes) ([2]; rat, in vivo): unch.; supp. lymphocytes ([2]; rat, in vivo): +12.4%; RBC (number of erythrocytes) ([3]; rat, in vivo): not increased |
| O=P1(N(CCCl)CCCl)NCCCO1 (stereo not drawn) [CyS, Cyclophosphamide] | −14.7% | −23.2% | −21.3 | −24.6% | −30.8 | −9.1 | +58.6% | −25 | −28.3 | +5.2% | +10.1% | unch. | −51% and −51.9% | −45.9% | −55.0% | −30.9% | −51.3% | B lymphocytes [2, 7]: −79.9%; polymorphs (polymorphonuclear granulocytes) [2, 7]: −28.1%; erythrocytes in thorn-apple form (acanthocytes) in bone marrow sinuses [5]: encountered |
| NS(=O)(=O)c1cc(C(=O)O)c(NCc2ccco2)cc1Cl [FUR, Furosemide] | −13.4% | −28.9% | −31.3 | unch. | −24.4 | – | +20.7% | −24.9 | −49.7 | unch. | −29.6% | −7.3% | +46.2% | +41.5% | +60.5% | unch. | +61.0% | RBC (number of erythrocytes) [3, 8]: unchanged |
